Consider 13 compounds from ChEMBL document CHEMBL3808296, “A combined in silico/in vitro approach unveils common molecular requirements for efficient BVDV RdRp binding of linear aromatic N-polycyclic systems” (Eur J Med Chem, 2016).

Series [1] in a line: Inhibition of His tagged BVDV NS5B Cdelta24 RNA dependent RNA polymerase K263A mutant expressed in Escherichia coli Rosetta DE3 preincubated for 30 mins followed by addition of GTP measured after 120 mins by fluorescence analysis. Details: species or system Bovine viral diarrhea virus 1.
The nature of series [2]: Inhibition of His tagged BVDV NS5B Cdelta24 RNA dependent RNA polymerase expressed in Escherichia coli Rosetta DE3 preincubated for 30 mins followed by addition of GTP measured after 120 mins by fluorescence analysis. The arrangement: species or system Bovine viral diarrhea virus 1.
The nature of series [3]: Antiviral activity against BVDV NADL infected in MDBK cells assessed as inhibition of virus induced cytopathogenicity after 3 to 4 days by MTT assay. Type of series: functional, cell-based, Bovine viral diarrhea virus 1-NADL. The settings on record: Bovine viral diarrhea virus isolates and strains. A general note: Damage to the host cells serves as the signal in cytopathic effect assays.

Series [4] concerns Vaccinia virus. Description: Antiviral activity against Vaccinia virus Elstree infected in Vero 76 cells after 3 days by crystal violet staining based plaque reduction assay. Type of series: functional, organism-based. Conditions: Orthopoxvirus vaccinia, Vero 76, 72 h.
The test system of series [5] is Mammalian orthoreovirus 1. Description: Antiviral activity against Reovirus type-1 3651 infected in BHK21 cells assessed as inhibition of virus induced cytopathogenicity after 3 to 4 days by MTT assay. Type of series: functional, cell-based. The settings on record: Mammalian orthoreovirus 1, 3651, BHK-21.
Series [6] can be described thus: Cytotoxicity against mock-infected african green monkey Vero 76 cells assessed as reduction in cell viability after 48 to 96 hrs by MTT assay. It is filed as cell-based. The settings on record: chlorocebus sabaeus, mock-infected Vero 76 cells. Background: Tetrazolium dyes change colour on reduction, which living cells bring about.
Series [7] can be described thus: Cytotoxicity against mock-infected MDBK cells assessed as reduction in cell viability after 72 hrs by MTT assay. The settings on record: cattle. Type of series: cell-based, Bos taurus.
The test system of series [8] is Respiratory syncytial virus. The experiment in a line: Antiviral activity against Respiratory syncytial virus A2 infected in Vero 76 cells after 5 days by crystal violet staining based plaque reduction assay. It is filed as functional, organism-based. Conditions: human respiratory syncytial virus, A2, Vero 76, 120 h. For orientation: Plaques are areas of infected cells; plaque reduction assays count them against a control.

In series [9] the test system is Vesicular stomatitis virus. Description: Antiviral activity against Vesicular stomatitis virus Indiana infected in Vero 76 cells after 2 days by crystal violet staining based plaque reduction assay. Type of series: functional, organism-based. The settings on record: Vero 76, 48 h.
The test system of series [10] is Coxsackievirus B2. The experiment in a line: Antiviral activity against CVB-2 infected in Vero 76 cells after 3 days by crystal violet staining based plaque reduction assay. Type of series: functional, organism-based. Conditions: Enterovirus B, Vero 76, 72 h.
For series [11], the system named is Poliovirus 1. The experiment in a line: Antiviral activity against Human poliovirus 1 strain Sabin infected in Vero 76 cells after 2 days by crystal violet staining based plaque reduction assay. Conditions: Enterovirus C, Vero 76, 48 h. Type of series: functional, organism-based.
Series [12] in a line: Cytotoxicity against mock-infected BHK21 cells assessed as reduction in cell viability after 72 hrs by MTT assay. Type of series: cell-based, Mesocricetus auratus, BHK-21. Conditions: hamster.
Series [13] in a line: Selectivity index, ratio of CC50 for MDBK cells to EC50 for […] NADL infected in MDBK cells.
The test system of series [14] is Yellow fever virus. Description: Antiviral activity against Yellow fever virus 17D infected in BHK21 cells assessed as inhibition of virus induced cytopathogenicity after 3 to 4 days by MTT assay. The settings on record: BHK-21. Type of series: functional, cell-based.
Series [15] is described as follows: Inhibition of BVDV RNA-dependent RNA polymerase. Details: species or system Bovine viral diarrhea virus 1.
The subject of series [16] is Bovine viral diarrhea virus 1. The experiment in a line: Antiviral activity against BVDV. It is filed as functional, organism-based. The settings on record: Bovine viral diarrhea virus isolates and strains.
The nature of series [17]: Inhibition of HCV RNA-dependent RNA polymerase. The arrangement: species or system Hepacivirus hominis.

Broadly, the IC50 is the concentration that inhibits the measured activity by half. As usually defined, the EC50 is the concentration needed to bring the measured effect to its halfway point. A word on the CC50: it is the concentration giving 50% cytotoxicity.

For `O=[N+]([O-])c1c2cccnc2c(Cl)c2[nH]nnc12`, the IC50 in series [1] was 140 µM; in series [2] it was 9 µM.

For `CC(=O)c1ccc(-c2nc3ccncc3[nH]2)cc1`, the values for the IC50 in [1] and in series [2] were 15 µM and 11 µM, respectively. In series [3], the EC50 turned out to be 7 µM.

Take `O=[N+]([O-])c1ccc(-c2nc3cc4cccnc4c(Cl)c3n2CC2CCCCC2)cc1`: the half-maximal effective concentration (EC50) was greater than 20 µM in series [4]; no less than 16 µM in series [5]; 5 µM in series [3]; greater than 20 µM in series [8]; greater than 20 µM in series [9]; greater than 20 µM in series [10]. Besides, the results for the half-maximal effective concentration (EC50) in series [11] and in [14] were greater than 20 µM and greater than 13 µM, respectively. Moreover, the CC50 in [6] came to 20 µM. For the same compound, the CC50 at 72 h is 33 µM in series [7] and 16 µM in [12]. Besides, in series [13], the “Ratio CC50/EC50” value is on record as greater than 6.6.

On to `Nc1c(/N=C/c2ccc([N+](=O)[O-])cc2)cc2cccnc2c1Cl`, for which the IC50 worked out at 1 µM in [1] and 0.81 µM in series [2]. Further, the EC50 in series [3] is 1.7 µM.

In the case of `O=[N+]([O-])c1ccc(-c2nc3cc4cccnc4c(Cl)c3[nH]2)cc1`, the IC50 came to 0.06 µM in series [15] and 8 µM in series [17]. The compound further had an EC50 in series [16] of 1.2 µM. For the same compound, the CC50 at 72 h in [7] is greater than 100 µM.

As for `N#Cc1ccc(-c2nc3cc4cccnc4c(Cl)c3[nH]2)cc1`, the half-inhibitory concentration (IC50) came to 0.75 µM in [1] and 0.48 µM in series [2]. The EC50 in [3] came to 0.3 µM. The CC50 at 72 h in series [7] is greater than 100 µM. Further, in series [13], the “Ratio CC50/EC50” value was greater than 333.3.

As to `N#Cc1ccc(-c2nc3cc4cccnc4cc3[nH]2)cc1`, the 50% effective concentration (EC50) in series [4] is greater than 100 µM; in [5], 7 µM; in series [3], 4 µM; in [8] it was greater than 16 µM; in [9] it was greater than 100 µM; in [10], greater than 30 µM. Moreover, the figures for the EC50 in series [11] and in [14] were greater than 30 µM and greater than 21 µM, respectively. For the same compound, the half-maximal cytotoxic concentration (CC50) in series [6] was 30 µM. For the same compound, the CC50 at 72 h in series [7] was greater than 100 µM; in series [12], 21 µM. For the same compound, in series [13], the “Ratio CC50/EC50” value was greater than 25.

On to `COc1ccc(-c2nc3cc4cccnc4cc3[nH]2)c(OC)c1`, for which the concentration giving a half-maximal response (EC50) in series [4] is 16 µM; in [5], 38 µM; in [3] it was 3.4 µM; in [8], greater than 45 µM; in series [9] it was greater than 90 µM; in series [10] it was 12 µM. For the same compound, the EC50 in series [11] was 16 µM; in series [14], greater than 45 µM. Further, the half-maximal cytotoxic concentration (CC50) in series [6] worked out at 90 µM. The CC50 at 72 h in series [7] was greater than 100 µM; in [12], 45 µM. The “Ratio CC50/EC50” value in [13] is given as greater than 29.4.

In the case of `FC(F)(F)c1ccc(-c2nc3cc4cccnc4cc3[nH]2)cc1`, the half-maximal effective concentration (EC50) in [4] is greater than 100 µM; in series [5], 52 µM; in series [3], 7 µM; in series [8], greater than 100 µM; in series [9], greater than 100 µM; in series [10], greater than 100 µM. Besides, the EC50 was 67 µM in series [11] and greater than 100 µM in [14]. For the same compound, in [6], the 50% cytotoxic concentration (CC50) was greater than 100 µM. For the same compound, the CC50 at 72 h in series [7] and in series [12] was greater than 100 µM in each case. Besides, the “Ratio CC50/EC50” value in series [13] is greater than 14.2.

Take `COc1ccc(-c2nc3cc4cccnc4c(Cl)c3[nH]2)c(OC)c1`: the concentration for a half-maximal effect (EC50) in series [4] was 13 µM; in series [5] it was greater than 100 µM; in [3], 6.3 µM; in [8], 10 µM; in [9], greater than 100 µM; in [10] it was 29 µM. Besides, the EC50 in series [11] amounted to 41 µM; in series [14], 95 µM. Further, the CC50 in [6] is greater than 100 µM. For the same compound, the cytotoxic concentration (CC50) at 72 h in series [7] and in series [12] was greater than 100 µM throughout. The “Ratio CC50/EC50” value in [13] was greater than 15.9.

As for `FC(F)(F)c1ccc(-c2nc3cc4cccnc4c(Cl)c3[nH]2)cc1`, the EC50 was greater than 100 µM in series [4]; greater than 100 µM in [5]; 2 µM in [3]; greater than 100 µM in [8]; greater than 100 µM in [9]; greater than 100 µM in series [10]. Further, the EC50 in series [11] was greater than 100 µM; in series [14] it was greater than 56 µM. Further, the cytotoxic concentration (CC50) in [6] was greater than 100 µM. For the same compound, the 50% cytotoxic concentration (CC50) at 72 h in series [7] and in [12] was greater than 100 µM each time. The “Ratio CC50/EC50” value in [13] is listed as greater than 50.

For the compound `COc1nc2cc3cccnc3c(Cl)c2nc1-c1cccs1`, the half-maximal inhibitory concentration (IC50) was found to be 0.96 µM in series [1] and 0.64 µM in series [2]. Moreover, in [3], the concentration giving a half-maximal response (EC50) worked out at 1.3 µM.

As for `CC(=O)c1ccc(-c2nc3cc4cccnc4c(Cl)c3[nH]2)cc1`, the half-maximal effective concentration (EC50) in [4] is greater than 100 µM; in series [5] it was 60 µM; in series [3], 5.8 µM; in series [8] it was greater than 100 µM; in series [9], greater than 100 µM; in [10], greater than 100 µM. Further, the concentration for a half-maximal effect (EC50) in series [11] and in series [14] was greater than 100 µM throughout. The CC50 in series [6] is greater than 100 µM. For the same compound, the CC50 at 72 h in series [7] and in series [12] was greater than 100 µM in each case. Besides, in series [13], the “Ratio CC50/EC50” value is greater than 17.2.
